The assay addresses T1, 12-LO (Homo sapiens, UniProt P18054).
T1 construct: 12-LO or 15-LO, up to 10 µM in A23187-stimulated neutrophils; endogenous in cells; host or cells: A23187-stimulated neutrophils
T1 sequence (P18054 1-663): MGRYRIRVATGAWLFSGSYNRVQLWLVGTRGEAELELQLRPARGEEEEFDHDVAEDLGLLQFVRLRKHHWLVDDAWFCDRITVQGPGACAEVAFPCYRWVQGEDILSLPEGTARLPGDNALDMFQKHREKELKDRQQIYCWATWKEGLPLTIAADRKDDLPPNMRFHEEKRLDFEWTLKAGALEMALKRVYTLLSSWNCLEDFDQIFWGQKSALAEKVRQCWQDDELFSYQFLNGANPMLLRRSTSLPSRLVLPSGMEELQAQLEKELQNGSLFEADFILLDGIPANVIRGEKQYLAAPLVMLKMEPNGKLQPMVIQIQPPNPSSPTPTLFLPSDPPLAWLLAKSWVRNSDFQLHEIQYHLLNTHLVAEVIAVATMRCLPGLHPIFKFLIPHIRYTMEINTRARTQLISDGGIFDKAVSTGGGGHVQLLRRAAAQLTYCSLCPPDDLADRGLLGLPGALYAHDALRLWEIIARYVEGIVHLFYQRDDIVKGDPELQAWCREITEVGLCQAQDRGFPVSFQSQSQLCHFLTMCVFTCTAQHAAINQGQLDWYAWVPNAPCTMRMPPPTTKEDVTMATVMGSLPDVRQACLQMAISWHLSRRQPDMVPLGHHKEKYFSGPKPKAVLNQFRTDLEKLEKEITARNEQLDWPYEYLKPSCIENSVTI
Briefly: 12-LO inhibition in A23187-stimulated neutrophils. In kind it is cell-based. The settings on record: up to 10 µM in A23187-stimulated neutrophils.

Take `O=C(O)c1noc(-c2ccc(OCc3ccc4ccccc4n3)cc2)c1-c1ccc(Cl)cc1` [Compound 9hj, 4-(4-Chlorophenyl)-5-(4-(quinolin-2-ylmethoxy)phenyl)isoxazole-3-carboxylic acid]: the “inhibition of 12-LO” value is on record as “did not inhibit”.

The values above are taken from patent EP2949653A1, “ISOXAZOLE DERIVATIVES AS LEUKOTRIENE BIOSYNTHESIS INHIBITORS” (Banoglu, Erden, priority 2014, dated 2015).
